Results: US8827946B2 (Shin Nippon Biomedical Laboratories, Ltd., priority 2009, dated 2014)
Where two headings read alike, the source gives them in different places.

Test: Phase 1 clinical study, pharmacokinetics of granisetron after intravenous and intranasal administration
Format: in vivo, human
Experimental: This was an open-label safety and PK study conducted at a single site in which healthy volunteers, at weekly intervals, were given the reference intravenous dose, followed by three single escalating nasal doses of TRG at weekly intervals.
Subjects received one intravenous dose of Kytril® (10 μg/kg) followed by three escalating single doses of TRG. There was a 7 day washout period between each dose.
The following PK parameters were tested: AUC0-last (ng·h/mL), AUCinf (ng·h/mL), Tmax (hours), Cmax (ng/mL), T1/2 (hours), clearance, and volume of distribution. No efficacy variables were assessed in this safety and PK study.
The PK parameters T1/2, Tmax, Cmax, AUC0-last, and AUCinf were calculated by using noncompartmental analysis. Values for Tmax and Cmax were reported as the observed values. Terminal elimination rate constants (λz) were determined by log-linear regression of the terminal portion of the concentration-time curves (FIG. 8). Values for T1/2 were calculated as (ln 2)/λz, and AUC0-last was determined by the linear trapezoidal method. AUCinf was calculated as the sum of AUC0-last and Clast/λz where Clast is the last measurable concentration. The absolute bioavailability (F) was calculated for each subject by the dose-corrected AUCinf intranasal divided by AUCinf intravenous. Apparent clearance and volume of distribution were also calculated. To determine the relationship between pharmacokinetic parameters (Cmax, AUClast, and AUC0-∞) and dosage, a multiple regression analysis was performed with log-transformed values. For other pharmacokinetic parameters, analysis of variance (ANOVA) using the mixed effect model was performed to compare between groups.

[1] = human, plasma, 10 ug/kg, intravenous 10 μg/kg (Kytril), healthy male volunteers, mean, N=8
[2] = human, plasma, inhaled or intranasal, intranasal 0.5 mg (TRG capsule, single nostril), healthy male volunteers, mean
[3] = human, plasma, inhaled or intranasal, intranasal 1.0 mg (TRG capsule, single nostril), healthy male volunteers, mean
[4] = human, plasma, inhaled or intranasal, intranasal 2.0 mg (TRG capsule, single nostril), healthy male volunteers, mean
[5] = intranasal 0.5 mg (TRG capsule, single nostril), healthy male volunteers, mean
[6] = intranasal 1.0 mg (TRG capsule, single nostril), healthy male volunteers, mean
[7] = intranasal 2.0 mg (TRG capsule, single nostril), healthy male volunteers, mean

CN1C2CCCC1CC(NC(=O)c1nn(C)c3ccccc13)C2 (stereo not drawn) [Granisetron, endo-N-(9-methyl-9-azabicyclo[3.3.1]non-3-yl)-1-methyl-1H-indazole-3-carboxamide] gave an AUC(0-inf) [1] of 103 ng·h/mL, an AUC(0-t) [1] of 92.4 ng·h/mL and a Cmax [1] of 16.6 ng/mL. The clearance [1] was 158 mL/min, the half-life (human, plasma, 10 ug/kg, intravenous 10 μg/kg (Kytril), healthy male volunteers, mean, N=8, read-out: T1/2 (converted)) was 8.52 h and the Vd (human, plasma, 10 ug/kg, intravenous 10 μg/kg (Kytril), healthy male volunteers, mean, N=8, read-out: Vss) was 108 L. It also gave an AUC(0-inf) [2] of 52.7 ng·h/mL, an AUC(0-t) [2] of 46.9 ng·h/mL and a Cmax [2] of 4.95 ng/mL. For the same molecule, the half-life (human, plasma, inhaled or intranasal, intranasal 0.5 mg (TRG capsule, single nostril), healthy male volunteers, mean, read-out: T1/2 (converted)) was 8.9 h, the AUC(0-inf) [3] was 119 ng·h/mL and the AUC(0-t) [3] was 105 ng·h/mL. For the same molecule, the Cmax [3] was 13.3 ng/mL, the half-life (human, plasma, inhaled or intranasal, intranasal 1.0 mg (TRG capsule, single nostril), healthy male volunteers, mean, read-out: T1/2 (converted)) was 9.52 h and the AUC(0-inf) [4] was 236 ng·h/mL. It also gave an AUC(0-t) [4] of 210 ng·h/mL, a Cmax [4] of 26.6 ng/mL and a half-life (human, plasma, inhaled or intranasal, intranasal 2.0 mg (TRG capsule, single nostril), healthy male volunteers, mean, read-out: T1/2 (converted)) of 9.29 h. For the same molecule, the CL/F [5] was 10.6 L/h, the Vz [5] was 131.4 L and the CL/F [6] was 9.1 L/h. It also gave a Vz [6] of 122.6 L, a CL/F [7] of 9.2 L/h and a Vz [7] of 122.0 L. For the same molecule, the Tmax (male, human, plasma, inhaled or intranasal, 0.5 mg, intranasal 0.5 mg (TRG capsule, single nostril), healthy male volunteers, mean, read-out: Tmax) was 1.34 h, the Tmax (male, human, plasma, inhaled or intranasal, 1 mg, intranasal 1.0 mg (TRG capsule, single nostril), healthy male volunteers, mean, read-out: Tmax) was 0.34 h and the Tmax (male, human, plasma, inhaled or intranasal, 2 mg, intranasal 2.0 mg (TRG capsule, single nostril), healthy male volunteers, mean, read-out: Tmax) was 0.63 h. It also gave a Tmax (male, human, plasma, inhaled or intranasal, 2 mg, intranasal, 0.5, 1.0 and 2.0 mg doses together, read-out: overall mean Tmax) of 0.75 h, a half-life (male, human, plasma, inhaled or intranasal, after intranasal administration, all dose levels, read-out: overall mean half-life (converted)) of 9.23 h and a Tmax (male, human, plasma, iv, 10 ug/kg, intravenous 10 μg/kg (Kytril), healthy male volunteers, mean, N=8, read-out: Tmax) of 0.18 h. The Tmax (male, human, plasma, iv, 10 μg/kg, intravenous rapid infusion 10 μg/kg, all subjects except one, read-out: Tmax) was 0.0833 to 0.167 h.
